One assay addresses PD (Escherichia coli, UniProt P0A9J8). Put plainly: PD activity with phenylalanine added to the reaction solution. The settings on record: 100 mM phenylalanine; for activity at 100000 µM: read-out: PD activity, expressed as percentage of that without addition of phenylalanine. It is filed as biochemical. Here is the method: (§1) DS, CM and PD activities of Corynebacterium glutamicum ATCC 39019 and transformants containing pEaroG-pheA3 were determined. Determination of DS activity was done according to the method of P.R. Sprinavasan, D.B. Sprinson, et al. [J. Biol. Chem., 234, 716 (1959)] and determination of CM and PD activities was done according to the method of R.G.H. Cotton and F. Gibson [Biochem. Biophys. Acta, 100, 76 (1965)].
(§2) Furthermore, DS, CM and PD activities of the transformants carrying pEaroG-pheA1, pEaroG-pheA2 or pEaroG-pheA3, were determined when 100 mM phenylalanine was added to the reaction solutions. Their activities shown in Table 2 are expressed as percentages of those without addition of phenylalanine.

For a further assay, the target named is CM (Escherichia coli, UniProt P0A9J8). Put plainly: CM activity with phenylalanine added to the reaction solution. It counts as biochemical. The settings on record: 100 mM phenylalanine; for activity at 100000 µM: read-out: CM activity, expressed as percentage of that without addition of phenylalanine. Here is the method:
as §1, §2

The target of another assay is DS (Escherichia coli, UniProt P0AB91). Put plainly: DS activity with phenylalanine added to the reaction solution. It is filed as biochemical. The settings on record: 100 mM phenylalanine. Here is the method:
as §1, §2

For assay [1], the system named is Escherichia coli AB3248 strain carrying pAROG1. Put plainly: Growth on M9 plate medium containing phenylalanine. It is filed as cell-based. The settings on record: M9 plate medium containing 500 µg/mℓ phenylalanine. Here is the method: Then, 50 µℓ of the ligase reaction mixture was added to 0.2 mℓ of a suspension containing competent cells at a concentration of about 10⁹ cells/mℓ and the mixture was left standing on ice for 10 minutes. Then, the mixture was heated at 37°C for 5 minutes and admixed with 2 mℓ of LB medium. Then, the mixture was left standing at 37°C for 90-120 minutes. Then, the cells were centrifugally washed twice with physiological saline solution and spread onto M9 plate medium (medium comprising 2 g of glucose, 1 g of NH₄Cl, 6 g of Na₂HPO₄, 3 g of KH₂PO₄, 0.1 g of MgSO₄·7H₂O, 15 mg of CaCl₂·2H₂O, 4 mg of thiamine hydrochloride and 15 g of agar in 1 ℓ of water, adjusted to pH 7.2), containing […] each of histidine, proline, arginine, isoleucine and valine. Colonies grown on M9 plate medium were spread onto LB plate medium (LB medium containing 1.6% agar, pH 7.0) containing 100 µg/mℓ ampicillin and LB plate medium containing 20 µg/mℓ tetracycline, and transformants grown on the ampicillin-containing medium and failing to grow on the tetracycline-containing medium were selected.
Furthermore, the HindIII-SalI-cleaved DNA fragment had the same restriction enzyme cleavage sites as those of aroG gene, as reported by W.D. Davies, et al. [Nucl. Acids Res., 10, 4045 (1982)] […]

The mark [2] stands for this setting: Corynebacterium glutamicum ATCC 39019/pEaroG-pheA1.
The mark [3] stands for this setting: Corynebacterium glutamicum ATCC 39019/pEaroG-pheA2.
Where [4] appears, read: Corynebacterium glutamicum ATCC 39019/pEaroG-pheA3.

The values that follow come from patent EP0264914A2, “Process for producing L-phenylalanine” (KYOWA HAKKO KOGYO CO., LTD., priority 1986, dated 1988).

The structures appear in SMILES notation. Where two headings read alike, the source gives them in different places.

Chain of PD (P0A9J8 whole entry): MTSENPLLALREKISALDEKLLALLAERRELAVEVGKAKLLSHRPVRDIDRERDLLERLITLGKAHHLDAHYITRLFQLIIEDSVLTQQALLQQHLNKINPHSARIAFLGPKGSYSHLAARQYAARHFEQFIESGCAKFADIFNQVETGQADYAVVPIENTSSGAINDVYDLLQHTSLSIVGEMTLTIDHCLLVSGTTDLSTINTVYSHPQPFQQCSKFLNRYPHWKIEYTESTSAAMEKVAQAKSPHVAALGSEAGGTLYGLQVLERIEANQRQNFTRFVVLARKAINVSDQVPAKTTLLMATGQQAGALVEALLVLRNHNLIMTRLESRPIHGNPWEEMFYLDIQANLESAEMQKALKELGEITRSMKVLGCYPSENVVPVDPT
Chain of CM (P0A9J8 whole entry): as above
Chain of DS (P0AB91 whole entry): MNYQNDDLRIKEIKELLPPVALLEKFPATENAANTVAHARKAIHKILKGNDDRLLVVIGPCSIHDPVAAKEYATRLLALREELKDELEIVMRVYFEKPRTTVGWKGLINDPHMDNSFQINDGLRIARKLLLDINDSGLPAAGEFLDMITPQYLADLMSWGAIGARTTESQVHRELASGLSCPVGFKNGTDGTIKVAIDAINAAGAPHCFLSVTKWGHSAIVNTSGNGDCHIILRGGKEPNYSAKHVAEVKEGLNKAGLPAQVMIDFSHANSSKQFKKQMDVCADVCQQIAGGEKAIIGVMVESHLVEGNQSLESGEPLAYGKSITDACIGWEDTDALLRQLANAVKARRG

Consider `N[C@@H](Cc1ccccc1)C(=O)O` [phenylalanine], for which the activity at 100000 µM on PD (setting [2]) was 5%; at PD (setting [3]) it was 7%; on CM (setting [2]), 61%; on CM (setting [3]), 66%; on DS (Corynebacterium glutamicum ATCC 39019/pEaroG-pheA1, read-out: DS activity, expressed as percentage of that without addition of phenylalanine), 12%. In addition, the “PD activity, expressed as percentage of that without addition of phenylalanine” value at PD (setting [4]) was found to be 81 percentages. The “CM activity, expressed as percentage of that without addition of phenylalanine” value on CM (setting [4]) stood at 89 percentages. Also, the “DS activity, expressed as percentage of that without addition of phenylalanine” value at DS (setting [3]) and on DS (setting [4]) was 74 percentages each time. In addition, the “growth of Escherichia coli AB3248 strain carrying pAROG1” value in assay [1] is given as “completely inhibited”.
